Laboratory results: patent US7452997B2 (priority 2004, dated 2008)
Read-outs that look alike come from different tables or passages of the source.

Legend:
human CB1 receptor [1] = molecular target: T1, human CB1 receptor (Homo sapiens, UniProt P21554); experiment: Functional cell-based assay, CB1 receptor mediated change in CRE β-gal expression (agonist / inverse agonist)
T1 construct: expressed in transfected cells; host or cells: SK-N-MC cells, stably transfected with pcDNA3 CB-1 (human); semi-purified membrane pellet
From the text: (§1) Functional Cell-Based Assay for CB1 or CB2 Agonist and Inverse Agonist Effects on Intra-Cellular Adenylate Cyclase Activity
(§2) The CB1 and CB2 receptors are G-protein coupled receptors (GPCR) which influence cell function via the Gi-protein. These receptors modulate the activity of intracellular adenylate cyclase which in turn produces the intracellular signal messenger cyclic-AMP (cAMP).
(§3) At baseline, or during non-ligand bound conditions, these receptors are constitutively active and tonically suppress adenylate cyclase activity. The binding of an agonists causes further receptor activation and produces additional suppression of adenylate cyclase activity. The binding of an inverse agonist inhibits the constitutive activity of the receptors and results in an increase in adenylate cyclase activity.
(§4) By monitoring intracellular adenylate cyclase activity, the ability of compounds to act as agonists or inverse agonists can be determined.
(§5) Test compounds were evaluated in SK-N-MC cells which, using standard transfection procedures, were stably transfected with human cDNA for pcDNA3-CRE β-gal and pcDNA3 CB1 receptor (human) or pcDNA3 CB2 receptor (human). By expressing CRE β-gal, the cells produced β-galactosidase in response to CRE promoter activation by cAMP. Cells expressing CRE β-gal and either the human CB1 or CB2 receptor will produce less β-galactosidase when treated with a CB1/CB2 agonist and will produce more β-galactosidase when treated with a CB1/CB2 inverse agonist.
(§6) The cells were grown in 96-well plates under standard cell culture conditions at 37° C. in a 5% CO2 atmosphere. After 3 days, the media was removed and a test compound in media (wherein the media was supplemented with 2 mM L-glutamine, […] sodium pyruvate, 0.1% low fatty acid FBS (fetal bovine serum) and antibiotics) was added to the cell. The plates were incubated for 30 minutes at 37° C. and the plate cells were then treated with forskolin over a 4-6 hour period, then washed and lysed. The β-galactosidase activity was quantitated using commercially available kit reagents (Promega Corp. Madison, Wis.) and a VMAX Plate Reader (Molecular Devices, Inc).
(§7) The change in β-galactosidase activity was determined by setting a vehicle treated cell's activity value at 100% and expressing the β-galactosidase activity measured in a corresponding compound treated cell as a percent of the vehicle treated cell activity.
(§8) The EC50 values for compounds tested were calculated by linear regression and were obtained from studies in which varying compound concentrations were used.

human CB2 receptor [2] = molecular target: T2, human CB2 receptor (Homo sapiens, UniProt P34972); experiment: Functional cell-based assay, CB2 receptor mediated change in CRE β-gal expression (agonist / inverse agonist); details: SK-N-MC cells, forskolin
From the text: as §1, §2, §3, §4, §5, §6
For cells expressing CRE β-gal and the CB2 receptor, CB2 agonists reduced β-galactosidase activity in a dose-dependent manner and CB2 inverse agonists increased β-galactosidase activity in a dose-dependent manner.
as §7, §8

human CB2 receptor [3] = molecular target: T2, human CB2 receptor; experiment: Binding assay, cannabinoid CB2 receptor ([3H]-CP-55,940 displacement); details: Cannabinoid CB2 Receptor Binding IC50, human CB2 receptor, SK-N-MC cell membranes, radioligand CP-55,940 0.2 nM
In short: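 Displacement of [3H]-CP-55,940 (0.2 nM) was measured over 90 min at 30 °C (pH 7.5 Tris/MgCl2/EDTA buffer with BSA), using semi-purified membranes of human CB2-transfected SK-N-MC cells. Bound counts collected on GF/C filters, 10 uM WIN 55,212 as nonspecific control; IC50 from varied concentrations.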

human CB1 receptor [4] = molecular target: T1, human CB1 receptor; experiment: biochemical; format: binding
In short: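 Radioligand binding was run at 30° C for 90 minutes, pH 7.5 Tris buffer containing 0.5 mg/mL fatty acid free BSA, on semi-purified membranes of stably transfected SK-N-MC cells. Filter-bound radioactivity was scintillation counted, with IC50 obtained by linear regression across compound concentrations.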

[5] = agonist, read-out: CB2 Receptor Functional Agonist EC50
[6] = inverse agonist, read-out: CB2 Receptor Functional Inverse Agonist EC50

T1 sequence (P21554 whole entry): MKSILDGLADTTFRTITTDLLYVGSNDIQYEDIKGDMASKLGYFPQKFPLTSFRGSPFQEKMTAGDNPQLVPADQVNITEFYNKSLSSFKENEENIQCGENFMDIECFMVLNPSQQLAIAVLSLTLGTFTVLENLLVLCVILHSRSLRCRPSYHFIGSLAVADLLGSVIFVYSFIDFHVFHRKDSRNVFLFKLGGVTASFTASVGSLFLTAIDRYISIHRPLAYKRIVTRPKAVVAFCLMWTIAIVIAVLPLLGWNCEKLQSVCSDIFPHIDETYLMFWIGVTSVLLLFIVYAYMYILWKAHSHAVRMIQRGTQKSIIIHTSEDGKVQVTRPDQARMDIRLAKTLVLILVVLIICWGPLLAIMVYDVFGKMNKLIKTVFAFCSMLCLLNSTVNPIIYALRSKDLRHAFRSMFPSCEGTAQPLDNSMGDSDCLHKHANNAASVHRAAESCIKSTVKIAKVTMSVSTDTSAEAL
T2 sequence (P34972 whole entry): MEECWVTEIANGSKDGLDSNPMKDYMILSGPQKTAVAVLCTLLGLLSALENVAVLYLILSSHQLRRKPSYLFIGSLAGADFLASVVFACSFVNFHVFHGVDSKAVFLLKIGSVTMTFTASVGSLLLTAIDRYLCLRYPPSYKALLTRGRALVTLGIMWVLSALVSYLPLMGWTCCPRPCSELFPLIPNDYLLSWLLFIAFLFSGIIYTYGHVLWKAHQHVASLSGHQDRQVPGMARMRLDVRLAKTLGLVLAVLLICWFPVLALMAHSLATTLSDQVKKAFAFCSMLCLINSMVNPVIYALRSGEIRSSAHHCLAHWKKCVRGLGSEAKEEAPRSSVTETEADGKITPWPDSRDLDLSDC

SMILES | EC50 (human CB1 receptor [1]) [nM] | EC50 (human CB1 receptor [1]; SK-N-MC cells, CRE β-gal, human CB1 receptor, forskolin, inverse agonist, read-out: CB1 Receptor Functional Inverse Agonist EC50) [nM] | EC50 (human CB2 receptor [2]; [5]) [nM] | IC50 (human CB2 receptor [3]) [nM] | IC50 (human CB1 receptor [4]) [nM] | EC50 (human CB2 receptor [2]; [6]) [nM]
CC(NS(=O)(=O)C=Cc1nn(-c2ccc(F)cc2)c2c1CCCC2CCc1ccccc1)c1ccccc1 (centres unmarked) [Cpd 258, 2-[1-(4-fluoro-phenyl)-7-phenethyl-4,5,6,7-tetrahydro-1H-indazol-3-yl]-ethenesulfonic acid (1-phenyl-ethyl)-amide] | 480 |  |  |  |  | 
CC(NS(=O)(=O)C=Cc1nn(-c2ccc(F)cc2)c2c1CCCC2CCc1ccccc1)C1CCCCC1 (centres unmarked) [Cpd 259, 2-[1-(4-fluoro-phenyl)-7-phenethyl-4,5,6,7-tetrahydro-1H-indazol-3-yl]-ethenesulfonic acid (1-cyclohexyl-ethyl)-amide] |  | 610 |  |  |  | 
COc1cccc(C2CCCc3c(C(=O)N[C@H](CCl)c4ccccc4)nn(-c4ccc(Cl)cc4Cl)c32)c1 (stereo partly drawn) [Cpd 316, 1-(2,4-dichloro-phenyl)-7-(3-methoxy-phenyl)-4,5,6,7-tetrahydro-1H-indazole-3-carboxylic acid [(1S)-2-chloro-1-phenyl-ethyl]-amide] | 46 |  |  |  |  | 
CC1CCCc2c(C(=O)NC3C4(C)CCC(C4)C3(C)C)nn(-c3ccc(F)cc3)c21 (centres unmarked) [compound 13] |  |  | 4.1 | 6.5 | 108 | 
CC12CCC(C1)C(C)(C)C2NC(=O)c1nn(-c2cccc(F)c2)c2c1CCCC2 (centres unmarked) [compound 18] |  |  | 2.7 | 3.6 | 91.8 | 
CC(NC(=O)c1nn(C2CCCCC2)c2c1CCCC2)C12CC3CC(CC(C3)C1)C2 (centres unmarked) [compound 26] |  |  | 11 | 15 | 723 | 
O=C(NCC12CC3CC(CC(C3)C1)C2)c1nn(C2CCCCC2)c2c1CCCC2 [compound 32] |  |  | 47 | 6.9 | 20 | 
O=C(NN1CCCCCC1)c1nn(-c2ccc(F)cc2)c2c1CCCC2 [compound 35] |  |  | 35 | 94 | 700 | 
CCOC(=O)[C@@H]1CCCC[C@@H]1NC(=O)c1nn(C2CCCCC2)c2c1CCCC2 [compound 36] |  |  | 5 | 12.8 | 105 | 
O=C(NN1CCCCCC1)c1nn(C2CCCCC2)c2c1CCCC2 [compound 37] |  |  | 10 | 112 | 69.3 | 
O=C(NC1C2CCC(C2)C1CO)c1nn(C2CCCCC2)c2c1CCCC2 (centres unmarked) [compound 40] |  |  | 31 | 215 | 1440 | 
O=C(NC12CC3CC(CC(C3)C1)C2)c1nn(C2CCCCC2)c2c1CCCC2 [compound 44] |  |  | 29 | 2.4 | 79 | 
O=C(NC1C2CC3CC(C2)CC1C3)c1nn(C2CCCCC2)c2c1CCCC2Cl (centres unmarked) [compound 62] |  |  | 0.57 | 5 | 280 | 
COC(=O)C(Cc1ccc(O)cc1)NC(=O)c1nn(Cc2ccccc2)c2c1CCCC2 (centres unmarked) [compound 75] |  |  | 0.1 | 0.7 | 23.7 | 
O=C(NC1C2CC3CC(C2)CC1C3)c1nn(C2CCCCC2)c2c1CC(NC(=O)C(F)(F)F)CC2 (centres unmarked) [compound 87] |  |  | 250 | 26.6 | 855 | 
CCOC(=O)C1CCc2nn(-c3ccccc3)c(C(=O)NC34CC5CC(CC(C5)C3)C4)c2C1 (centres unmarked) [compound 91] | 3370 |  |  |  |  | 
CC(=O)OC1CCc2c(c(C(=O)NC3C4(C)CCC(C4)C3(C)C)nn2C2CCCCC2)C1 (centres unmarked) [compound 94] |  |  | 25 | 20 | 1780 | 
O=C(NC1C2CC3CC(C2)CC1C3)c1nn(CC2CCCCC2)c2c1CCCC2 (centres unmarked) [compound 122] |  |  | 37 | 1.5 | 4 | 
CC(NC(=O)c1nn(CC2CCCCC2)c2c1CCCC2)C12CC3CC(CC(C3)C1)C2 (centres unmarked) [compound 123] |  |  | 7.5 | 4.6 | 7.5 | 
CC(NC(=O)c1nn(-c2ccc(F)cc2)c2c1CCCC2c1ccccc1)C12CC3CC(CC(C3)C1)C2 (centres unmarked) [compound 146] | 1520 |  |  |  |  | 

SMILES | EC50 (human CB1 receptor [1]) [nM] | EC50 (human CB1 receptor [1]; SK-N-MC cells, CRE β-gal, human CB1 receptor, forskolin, inverse agonist, read-out: CB1 Receptor Functional Inverse Agonist EC50) [nM] | EC50 (human CB2 receptor [2]; [5]) [nM] | IC50 (human CB2 receptor [3]) [nM] | IC50 (human CB1 receptor [4]) [nM] | EC50 (human CB2 receptor [2]; [6]) [nM]
CCOC(=O)C1CCc2c(c(C(=O)NC3C4(C)CCC(C4)C3(C)C)nn2Cc2ccccc2)C1 (centres unmarked) [compound 149] |  |  |  | 8 | 67 | 7.9
CCOC(=O)[C@H]1C2CCC(C2)[C@H]1NC(=O)c1nn(-c2ccc(F)cc2)c2c1CCCC2CCc1ccccc1 (some centres unmarked) [compound 154] |  |  | 9 | 370 | 60 | 
CCOC(=O)C1CCc2c(C(=O)NCC34CC5CC(CC(C5)C3)C4)nn(Cc3ccccc3)c2C1 (centres unmarked) [compound 156] |  |  |  | 2 | 97 | 35
CCOC(=O)C1CCc2c(C(=O)NC34CC5CC(CC3C5)C4)nn(Cc3ccccc3)c2C1 (centres unmarked) [compound 157] |  |  |  | 2 | 30 | 1.5
CC(NC(=O)c1nn(C2CCCCC2)c2c1CCCC2)C1CCCCC1 (centres unmarked) [compound 184] |  |  | 100 | 20 | 50 | 
C[C@@H](NC(=O)c1nn(C2CCCCC2)c2c1CCCC2)C1CCCCC1 [compound 195] |  |  | 5.5 | 20 | 100 | 
CC12CCC(C1)C(C)(C)[C@H]2NC(=O)c1nn(C2CCCCC2)c2c1CCCC2 (some centres unmarked) [compound 207] |  |  | 10 | 1.6 | 82.4 | 
CCOC(=O)[C@@H]1CCc2c(c(C(=O)NC3C4CC5CC(C4)CC3C5)nn2Cc2ccccc2)C1 (some centres unmarked) [compound 211] |  |  |  | 0.7 | 5 | 16
C[C@@H](NC(=O)c1nn(C2CCCCC2)c2c1CCCC2)C12CC3CC(CC(C3)C1)C2 [compound 212] |  |  | 3.7 | 74 | 260 | 
CCOC(=O)[C@@H]1CCc2c(c(C(=O)NC(C)C34CC5CC(CC(C5)C3)C4)nn2C2CCCCC2)C1 (some centres unmarked) [compound 214] |  |  |  | 15.3 | 1230 | 120
CC12CCC(C1)C(C)(C)[C@@H]2NC(=O)c1nn(Cc2ccccc2)c2c1CCCC2 (some centres unmarked) [compound 217] |  |  | 0.052 | 0.1 | 2.6 | 
COC(=O)[C@H]1CCc2c(c(C(=O)NC3C4CC5CC(C4)CC3C5)nn2C2CCCCC2)C1 (some centres unmarked) [compound 218] |  |  |  | 3 | 400 | 6
COC(=O)[C@@H]1CCc2c(c(C(=O)NC3C4CC5CC(C4)CC3C5)nn2C2CCCCC2)C1 (some centres unmarked) [compound 219] |  |  |  | 4 | 100 | 320
CC(C)OC(=O)C1CCc2c(c(C(=O)NC3C4CC5CC(C4)CC3C5)nn2C2CCCCC2)C1 (centres unmarked) [compound 232] |  |  |  | 30 | 2400 | 360
CCOC(=O)[C@@H]1C2CCC(C2)[C@@H]1NC(=O)c1nn(C2CCCCC2)c2c1CCCC2 (some centres unmarked) [compound 278] |  |  | 0.78 | 37.5 | 403 | 
CCOC(=O)C1CCc2c(C(=O)N[C@H](C)C3CCCCC3)nn(C3CCCCC3)c2C1 (some centres unmarked) [compound 284] |  |  |  | 45 | 350 | 360
C[C@@H](NC(=O)c1nn(-c2ccc(Cl)cc2Cl)c2c1CCC/C2=C\c1ccc(Cl)cc1)c1ccccc1 [compound 307] | 100 |  |  |  |  | 
COc1cccc(C2CCCc3c(C(=O)N[C@H](C)c4ccccc4)nn(-c4ccc(Cl)cc4Cl)c32)c1 (some centres unmarked) [compound 312] | 36 |  |  |  |  | 
O=C(NCc1ccccn1)c1nn(-c2ccc(Cl)cc2Cl)c2c1CCCC2=Cc1ccc(Cl)cc1 [compound 319] | 50 |  |  |  |  | 
